Assay results published in patent publication US4929623A, “Benzothiazole derivative” (Eisai Co., Ltd., priority 1987, dated 1990).

test system: generation of leukotriene C4 (LT) from sliced lung of guinea pig; assay: Effect on generation of leukotriene C4 from sliced lung of guinea pig (passively sensitized, ovalbumin challenge); format: cell-based, guinea pig (male Hartley); settings: 3 μM test compound, 10 min preincubation, ovalbumin 10 μg/ml, 15 min, 37° C., 3 µM
Protocol: Effect on generation of leukotriene C4 (LT) from sliced lung of guinea pig
An antiovalbumin guinea pig serum (1/10 dilution; 0.5 ml/100 g) was intravenously injected into a male Hartley guinea pig (300-350 g) for passive sensitization. 16 to 18 hr after the passive sensitization, the blood was removed by circulation of the Tyrode solution and the lung was extirpated. The extirpated lung was cut into small pieces having a size of 1 mm×1 mm×1 mm while cooling the lung with ice. The pieces were washed, and 150 mg of the pieces was suspended on 1.8 ml of the Tyrode solution, followed by incubation at 37° C. for 5 min. A 3 μM test compound (the compound of the present invention) solution was added thereto, followed by incubation for 10 min. An antigen solution (ovalbumin; a final concentration of 10 μg/ml) was added thereto, followed by incubation for additional 15 min. The mixture was filtered through a nylon mesh. 100 μl of the filtrate was subjected to determination of the amount of leukotriene C4 (LTC4) with an RzA kit.
The percentage leukotriene C4 (LTC4) liberation inhibition of each compound (indicated by compound No. used in the Examples which will be described later) is shown in Table 1.

SMILES | Percentage inhibition (leukotriene C4 (LTC4) liberation inhibition)
Cc1c(O)c(C)c2sc(N)nc2c1C [Compound 92] | 64%

same assay, conditions: Cavia porcellus, 3 μM test compound, 10 min preincubation, ovalbumin 10 μg/ml, 15 min, 37° C., read-out: Percentage inhibition (leukotriene C4 (LTC4) liberation inhibition)

SMILES | inhibition at 3 µM
Cc1c(O)c(C)c2sc(N)nc2c1C [Compound 8, 6-hydroxy-2-amino-4,5,7-trimethylbenzothiazole] | 75%
Cc1c(O)c(C(C)C)c2sc(N)nc2c1C [Compound 9] | 36%
CC(C)c1cc2nc(N)sc2c(C(C)C)c1O [Compound 10] | 78%
Nc1nc2cc(Br)c(O)c(Br)c2s1 [Compound 13] | 35%
Nc1nc2c(cc(O)c3ncccc32)s1 [Compound 17] | 35%
Cc1ccc2sc(N)nc2c1O [Compound 19] | 36%
Nc1nc2c(O)c(Cl)ccc2s1 [Compound 20] | 33%
Nc1nc2c(O)c(Br)cc(Br)c2s1 [Compound 21] | 48%
Cc1c(O)c(C(C)(C)C)cc2nc(N)sc12 [Compound 22] | 61%
Cc1c(O)c(C)c2sc(NCC(C)C)nc2c1C [Compound 24] | 95%
Cc1c(O)c(C)c2sc(NCC3CCCCC3)nc2c1C [Compound 25] | 36%
CCNc1nc2c(C)c(C)c(O)c(C)c2s1 [Compound 26] | 85%
Cc1c(O)c(C)c2sc(NCc3ccc(N(C)C)cc3)nc2c1C [Compound 28] | 34%
Cc1c(O)c(C)c2sc(NCc3ccc(NS(C)(=O)=O)cc3)nc2c1C [Compound 29] | 43%
Cc1c(O)c(C)c2sc(NCc3ccc(S(C)(=O)=O)cc3)nc2c1C [Compound 30] | 79%
Cc1c(O)c(C)c2sc(NCc3ccc(S(=O)(=O)N(CCO)CCO)cc3)nc2c1C [Compound 31] | 62%
CCN(CC)S(=O)(=O)c1ccc(CNc2nc3c(C)c(C)c(O)c(C)c3s2)cc1 [Compound 32] | 44%
Cc1c(O)c(C)c2sc(NCc3ccc(S(=O)(=O)NCCO)cc3)nc2c1C [Compound 33] | 46%
Cc1c(O)c(C)c2sc(NCc3ccc(S(N)(=O)=O)cc3)nc2c1C [Compound 34, 6-hydroxy-2-(4-sulfamoylbenzylamino)-4,5,7-trimethyl-benzothiazole] | 70%
CCN(Cc1ccc(S(N)(=O)=O)cc1)c1nc2c(C)c(C)c(O)c(C)c2s1 [Compound 35] | 68%
CC(C)c1cc2nc(NCc3ccc(S(N)(=O)=O)cc3)sc2c(C(C)C)c1O [Compound 37] | 39%
CCN(Cc1ccc(S(N)(=O)=O)cc1)c1nc2cc(C(C)C)c(O)c(C(C)C)c2s1 [Compound 40] | 32%

SMILES | inhibition at 3 µM
Cc1c(O)c(C)c2sc(NC(=O)c3cccnc3)nc2c1C [Compound 51] | 56%
Cc1c(O)c(C)c2sc(NC(=O)C3CCCCC3)nc2c1C [Compound 52] | 62%
CC(=O)Nc1nc2c(C)c(C)c(O)c(C)c2s1 [Compound 53] | 69%
Cc1c(O)c(C)c2sc(NC(=O)c3ccccc3)nc2c1C [Compound 54] | 58%
Cc1c(O)c(C)c2sc(NC(=O)CN(C)C)nc2c1C [Compound 57] | 42%
Cc1c(O)c(C)c2sc(NC(=O)N(C)C)nc2c1C [Compound 58] | 64%
CCOC(=O)Nc1nc2c(C)c(C)c(O)c(C)c2s1 [Compound 59] | 71%
CCOC(=O)C(=O)Nc1nc2c(C)c(C)c(O)c(C)c2s1 [Compound 60] | 36%
Cc1c(O)c(C)c2sc(NC(=O)C(=O)O)nc2c1C [Compound 61] | 36%
CCOC(=O)CCC(=O)Nc1nc2c(C)c(C)c(O)c(C)c2s1 [Compound 64] | 32%
CC(C)c1cc2nc(NC(=O)N(C)C)sc2c(C(C)C)c1O [Compound 68] | 70%
Cc1c(O)c(C)c2sc(NS(C)(=O)=O)nc2c1C [Compound 69] | 42%
Cc1c(O)c(C)c2sc(NS(=O)(=O)C(C)C)nc2c1C [Compound 70] | 30%
Cc1c(O)c(C)c2sc(NS(=O)(=O)c3ccccc3)nc2c1C [Compound 71] | 53%
CC(C)c1cc2nc(NS(=O)(=O)N(C)C)sc2c(C(C)C)c1O [Compound 75] | 50%
CC(C)c1c(O)c(C(C)C)c2sc(N)nc2c1Cl [Compound 76] | 72%
NS(=O)(=O)c1ccc(CNc2nc3cc(Br)c(O)c(Br)c3s2)cc1 [Compound 86, 6-hydroxy-2-(4-sulfamoylbenzylamino)-5,7-dibromobenzothiazole] | 31%
NS(=O)(=O)c1ccc(CNc2nc3c(O)c(Br)cc(Br)c3s2)cc1 [Compound 87] | 32%
CCOC(=O)CCCNc1nc2c(C)c(C)c(O)c(C)c2s1 [Compound 88] | 79%
Cc1c(O)c(C)c2sc(N3CCCC3=O)nc2c1C [Compound 90] | 41%
Cc1c(O)c(C)c2sc(NCCCC(=O)NC3CCCCC3)nc2c1C [Compound 91] | 53%
CNc1nc2c(C)c(C)c(O)c(C)c2s1 [Compound 93] | 83%

SMILES | inhibition at 3 µM
Cc1c(O)c(C)c2sc(N(C)C)nc2c1C [Compound 94] | 79%
CCCCCNc1nc2c(C)c(C)c(O)c(C)c2s1 [Compound 95] | 72%
CC(C)=CCNc1nc2c(C)c(C)c(O)c(C)c2s1 [Compound 96] | 77%
Cc1c(O)c(C)c2sc(Nc3ccc(O)cc3)nc2c1C [Compound 98] | 60%
COc1ccc(Nc2nc3c(C)c(C)c(O)c(C)c3s2)cc1 [Compound 99] | 43%
Cc1c(O)c(C)c2sc(Nc3ccc(C(=O)O)cc3)nc2c1C [Compound 101, 6-hydroxy-2-(4-carboxylphenylamino)-4,5,7-trimethylbenzothiazole] | 37%
Cc1c(O)c(C)c2sc(Nc3ccc(S(N)(=O)=O)cc3)nc2c1C [Compound 103] | 48%
Cc1c(O)c(C)c2sc(Nc3cc(Cl)c(O)c(Cl)c3)nc2c1C [Compound 106] | 49%
Cc1c(O)c(C)c2sc(Nc3ccc(CCC(=O)O)cc3)nc2c1C [Compound 108] | 30%
COc1c(O)c(C)c2sc(N)nc2c1OC [Compound 110] | 41%
CC(C)c1cc2nc(Nc3ccc(C(=O)O)cc3)sc2c(C(C)C)c1O [Compound 113, 6-hydroxy-2-(4-carboxylphenylamino)-5,7-diisopropylbenzothiazole] | 49%
CC(C)c1cc2nc(Nc3ccccc3)sc2c(C(C)C)c1O [Compound 115] | 39%
CC(C)c1cc2nc(Nc3ccc(S(N)(=O)=O)cc3)sc2c(C(C)C)c1O [Compound 122] | 34%
CC(C)c1cc2nc(N(CCO)CCO)sc2c(C(C)C)c1O [Compound 123] | 71%
CC(C)c1cc2nc(N3CCOCC3)sc2c(C(C)C)c1O [Compound 124] | 72%
CC(C)c1cc2nc(NCc3ccccn3)sc2c(C(C)C)c1O [Compound 126, 6-hydroxy-2-(2-pyridylmethylamino)-5,7-diisopropylbenzothiazole] | 66%
CC(C)c1cc2nc(N3CCC(O)CC3)sc2c(C(C)C)c1O [Compound 128] | 60%
Cc1c(O)c(C)c2sc(NCc3ccccc3)nc2c1C [Compound 134] | 88%
Cc1c(O)c(C)c2sc(NCc3ccc(C(=O)O)cc3)nc2c1C [Compound 135] | 41%
COC(=O)c1ccc(CNc2nc3c(C)c(C)c(O)c(C)c3s2)cc1 [Compound 136] | 67%
Cc1c(O)c(C)c2sc(NCc3ccc(Cl)cc3Cl)nc2c1C [Compound 137] | 40%
Cc1c(O)c(C)c2sc(NCc3ccc(C(N)=O)cc3)nc2c1C [Compound 141] | 53%
